# Read-outs that look alike come from different tables or passages of the source.
# Tests used:
# [1] = Blood-brain barrier (BBB) study in SD rats after single IV and PO administration, brain; assay type: in vivo; details: for Cmax / Tmax / half-life / MRT last / MRT inf: Sprague-Dawley (SD); for MRT last: read-out: MRT(0−t); for MRT inf: read-out: MRT(0−∞); for T1/2 and AUC(0-∞) in the brain tissue: compared to Ozagrel
# Description: Effect Example 3: Pharmacokinetic and blood-brain barrier (BBB) studies of compounds after single intravenous (IV) and oral (PO) administration in SD rats
# (§1) The experimental method of administration by gavage injection in rats: SD rats weighing 180 to 220 g were fasted for 12 hours prior to the experiment, with free access to water. After administration, food and water were withheld for 4 hours. After this 4-hour period, the rats were allowed free access to water, and food was provided after 8 hours. The drugs were administered at a set dose. N=3, blood samples were taken before administration, and 5 minutes, 0.25 hours, 0.5 hours, 0.75 hours, 1 hour, 2 hours, 4 hours, 8 hours, and 24 hours after administration, respectively, and placed into sodium heparin anticoagulant tubes. The tubes were centrifuged for 1 hour at 4° C. and at 8000 rpm for 5 minutes, and the plasma was then separated and stored in centrifuge tubes at −70° C. for analysis.
# as §1, with “of intravenous” for “of”, “to” for “by gavage injection in”
# The plasma concentration-time data were processed using the Phoenix® WinNonlin® 8.0 program to calculate pharmacokinetic parameters.
# Among them, Cmax and Tmax are measured values, the elimination rate constant k of the tail section of the C-t curve is obtained from the linear regression of LnC-t, and the value of AUC0-4 is calculated by the trapezoidal area method, and the area under the curve from 0 to ∞ time is AUC=AUC0-4+Ct/k.
# [2] = Pharmacokinetics in SD rats after single IV and PO administration, plasma; assay type: in vivo; details: for Vd / AUC(0-inf) / AUC(0-t) / C0 / Cmax / Tmax / half-life / MRT last / MRT inf / bioavailability: Sprague-Dawley (SD), rat plasma; for Vd: rat, plasma, iv, 1 mg/kg; for MRT last: read-out: MRT(0−t); for MRT inf: read-out: MRT(0−∞); for bioavailability: PO 6 mg/kg vs IV 1 mg/kg
# Description: The experimental method of administration by gavage injection in rats: SD rats weighing 180 to 220 g were fasted for 12 hours prior to the experiment, with free access to water. After administration, food and water were withheld for 4 hours. After this 4-hour period, the rats were allowed free access to water, and food was provided after 8 hours. The drugs were administered at a set dose. N=3, blood samples were taken before administration, and 5 minutes, 0.25 hours, 0.5 hours, 0.75 hours, 1 hour, 2 hours, 4 hours, 8 hours, and 24 hours after administration, respectively, and placed into sodium heparin anticoagulant tubes. The tubes were centrifuged for 1 hour at 4° C. and at 8000 rpm for 5 minutes, and the plasma was then separated and stored in centrifuge tubes at −70° C. for analysis. The experimental method of intravenous administration to rats: SD rats weighing 180 to 220 g were fasted for 12 hours prior to the experiment, with free access to water. After administration, food and water were withheld for 4 hours. After this 4-hour period, the rats were allowed free access to water, and food was provided after 8 hours. The drugs were administered at a set dose. N=3, blood samples were taken before administration, and 5 minutes, 0.25 hours, 0.5 hours, 0.75 hours, 1 hour, 2 hours, 4 hours, 8 hours, and 24 hours after administration, respectively, and placed into sodium heparin anticoagulant tubes. The tubes were centrifuged for 1 hour at 4° C. and at 8000 rpm for 5 minutes, and the plasma was then separated and stored in centrifuge tubes at −70° C. for analysis. The plasma concentration-time data were processed using the Phoenix® WinNonlin® 8.0 program to calculate pharmacokinetic parameters. Among them, Cmax and Tmax are measured values, the elimination rate constant k of the tail section of the C-t curve is obtained from the linear regression of LnC-t, and the value of AUC0-4 is calculated by the trapezoidal area method, and the area under the curve from 0 to ∞ time is AUC=AUC0-4+Ct/k. [table]
Structure (SMILES),"Cmax ([1]; rat brain, IV 1 mg/kg) [ng/g]","Tmax ([1]; rat brain, IV 1 mg/kg) [h]","half-life ([1]; rat brain, IV 1 mg/kg) [h]","MRT last ([1]; rat brain, IV 1 mg/kg) [h]","MRT inf ([1]; rat brain, IV 1 mg/kg) [h]","Cmax ([1]; rat brain, PO 6 mg/kg) [ng/g]","Tmax ([1]; rat brain, PO 6 mg/kg) [h]","half-life ([1]; rat brain, PO 6 mg/kg) [h]","MRT last ([1]; rat brain, PO 6 mg/kg) [h]","MRT inf ([1]; rat brain, PO 6 mg/kg) [h]","AUC(0−t) ([1]; rat brain, IV 1 mg/kg) [ng·h/g]","AUC(0−∞) ([1]; rat brain, IV 1 mg/kg) [ng·h/g]","AUC(0−t) ([1]; rat brain, PO 6 mg/kg) [ng·h/g]","Vd ([2]; IV 1 mg/kg, read-out: Vss) [L/kg]","Vd ([2]; IV 1 mg/kg, read-out: Vz) [L/kg]",AUC(0-inf) ([2]; IV 1 mg/kg) [µg·h/mL],AUC(0-t) ([2]; IV 1 mg/kg) [µg·h/mL],C0 ([2]; IV 1 mg/kg) [ng/mL],Cmax ([2]; IV 1 mg/kg) [ng/mL],Tmax ([2]; IV 1 mg/kg) [h],further results
"O=C(O)/C=C/c1ccc(Cn2ccnc2)cc1 [Ozagrel, reference compound]",27.6,0.08,0.11,0.15,0.17,42.6,0.25,0.4,0.59,0.68,4.96,5.25,35.86,0.25,0.74,0.51,0.51,3670,1840,0.083,"AUC(0−∞) ([1]; rat brain, PO 6 mg/kg): 37.46 ng·h/g; half-life ([2]; IV 1 mg/kg): 0.26 h; MRT last ([2]; IV 1 mg/kg): 0.12 h; MRT inf ([2]; IV 1 mg/kg): 0.13 h; AUC(0-inf) ([2]; PO 6 mg/kg): 2.68 µg·h/mL; AUC(0-t) ([2]; PO 6 mg/kg): 2.68 µg·h/mL; Cmax ([2]; PO 6 mg/kg): 3780 ng/mL; Tmax ([2]; PO 6 mg/kg): 0.25 h; half-life ([2]; PO 6 mg/kg): 0.73 h; bioavailability [2]: 87.5%; MRT last ([2]; PO 6 mg/kg): 0.62 h; MRT inf ([2]; PO 6 mg/kg): 0.63 h"
"O=C(O)[C@@H]1C[C@H]1c1ccc(Cn2ccnc2)c(F)c1 [Compound 15, (1R,2R)-2-(4-((1H-Imidazol-1-yl)methyl)-3-fluorophenyl)cyclopropane-1-carboxylic acid]",41.2,0.08,2.2,0.82,3.05,199,1,1.7,2.56,2.91,33.91,69.74,815.87,0.34,0.38,3.44,3.43,3710,3160,0.083,"T1/2 and AUC(0-∞) in the brain tissue ([1]; intravenously at 1 mg/kg): significantly increased; T1/2 and AUC(0-∞) in the brain tissue ([1]; orally at 6 mg/kg): significantly increased; AUC(0−∞) ([1]; rat brain, PO 6 mg/kg): 853.63 ng·h/g; half-life ([2]; IV 1 mg/kg): 0.91 h; MRT last ([2]; IV 1 mg/kg): 1.14 h; MRT inf ([2]; IV 1 mg/kg): 1.16 h; AUC(0-inf) ([2]; PO 6 mg/kg): 80.7 µg·h/mL; AUC(0-t) ([2]; PO 6 mg/kg): 78.4 µg·h/mL; Cmax ([2]; PO 6 mg/kg): 18600 ng/mL; Tmax ([2]; PO 6 mg/kg): 1 h; half-life ([2]; PO 6 mg/kg): 1.51 h; bioavailability [2]: 381%; MRT last ([2]; PO 6 mg/kg): 2.57 h; MRT inf ([2]; PO 6 mg/kg): 2.79 h; T1/2 and AUC(0-∞) in the whole body blood circulation system as compared to that of Ozagrel ([2]; intravenously at 1 mg/kg): significantly increased; T1/2 and AUC(0-∞) in the whole body blood circulation system as compared to that of Ozagrel ([2]; orally at 6 mg/kg): significantly increased"
"O=C(O)[C@@H]1C[C@H]1c1ccc(Cn2cnc(Cl)c2)c(Cl)c1 [Compound 11, (1R,2R)-2-(3-Chloro-4-((4-chloro-1H-imidazol-1-yl)methyl)phenyl)cyclopropane-1-carboxylic acid]",57.5,1,19.5,9.49,27.4,385,4,19.7,9.94,28.5,855.25,1475.23,7014.55,0.22,0.22,228,86.4,5150,5140,0.083,"T1/2 and AUC(0-∞) in the brain tissue ([1]; intravenously at 1 mg/kg): significantly increased; T1/2 and AUC(0-∞) in the brain tissue ([1]; orally at 6 mg/kg): significantly increased; AUC(0−∞) (h*ng/g) ([1]; rat brain, PO 6 mg/kg): 12,439.74 h*ng/g; half-life ([2]; IV 1 mg/kg): 34.8 h; MRT last ([2]; IV 1 mg/kg): 10.5 h; MRT inf ([2]; IV 1 mg/kg): 50.1 h; AUC(0-inf) ([2]; PO 6 mg/kg): 1700 µg·h/mL; AUC(0-t) ([2]; PO 6 mg/kg): 587 µg·h/mL; Cmax ([2]; PO 6 mg/kg): 32400 ng/mL; Tmax ([2]; PO 6 mg/kg): 4 h; half-life ([2]; PO 6 mg/kg): 37 h; bioavailability [2]: 113%; MRT last ([2]; PO 6 mg/kg): 11 h; MRT inf ([2]; PO 6 mg/kg): 54.4 h; T1/2 and AUC(0-∞) in the whole body blood circulation system as compared to that of Ozagrel ([2]; intravenously at 1 mg/kg): significantly increased; T1/2 and AUC(0-∞) in the whole body blood circulation system as compared to that of Ozagrel ([2]; orally at 6 mg/kg): significantly increased"

# Reference: US20240336638A1, “IMIDAZOLE COMPOUND, AND INTERMEDIATE AND APPLICATION THEREOF” (priority 2021, published 2024)
